We go through 10 compounds from PMC6713100, “Anticancer sulfonamide hybrids that inhibit bladder cancer cells growth and migration as tubulin polymerisation inhibitors” (Journal of Enzyme Inhibition and Medicinal Chemistry, 2019).

In one data set the test system is HT-29 cell line. Also noted: method as in PMID 26774930. Conditions: read-out: IC50 HT-29 cell viability; cited from earlier work.
The subject of the next data set is MCF-7 cells. Also noted: method as in PMID 28802125. Conditions: read-out: IC50 MCF-7 antiproliferative activity; cited from earlier work.
The next data set has as its system T47D cells. Also noted: method as in PMID 28212337. The following applies: read-out: IC50 T47D anticancer activity in vitro; cited from earlier work.
Another data set has as its system RT-112. As to the kind of experiment: CCK8 antiproliferative assay, bladder cancer cells RT-112. The format is cell-based. Conditions: Homo sapiens, treatment for 48 h. As to the method:
(§1) Breast cancer cells (MDA-MB-453), liver cancer cells (SNU-423), and bladder cancer cells (UM-UC-3, RT-112, RT4, T24) were purchased from the Shanghai culture company, and cultured at 37 °C in an atmosphere containing 5% CO2. 4,000 cells per well were seeded into a 96-well plate for 24 h and compounds were added to cluture 48 h. Next, 6 mg/ml CCK8 (20 µl) per well was added to explore the cell survival.
(§2) CCK8 method was used to investigate the anticancer activity in vitro of sulfonamide-dithiocarbamate hybrids 13a–13d against cancer cells for 48 h. MDA-MB-453 (breast cancer cells), SNU-423 (liver cancer cells) and RT-112 (bladder cancer cells) were selected to explore the antiproliferative activity. In this work, 5-fluorouracil (5-Fu) was used as the control drug.
(§3) In order to explore the antiproliferation ability, four bladder cancer cell lines (UM-UC-3, RT-112, RT4 and T24) were selected and treated with the hybrid 13d in the 24-well plate for 48 h and 72 h. […] Compared with the cell proliferation of 48 h, the cell proliferation of 72 h was decreased.

A further data set deals with SNU-423. As to the kind of experiment: CCK8 antiproliferative assay, liver cancer cells. The format is cell-based. The following applies: Homo sapiens, treatment for 48 h, means of three independent experiments. As to the method: as §1, §2
For a further data set, the system named is MCF-7. The experiment in a line: CCK8 antiproliferative assay, breast cancer cells. The following applies: Homo sapiens, MCF7, treatment for 48 h, means of three independent experiments. It counts as cell-based.
The test system of data set [1] is MDA-MB-453, SNU-423 and RT-112. The experiment in a line: CCK8 antiproliferative assay, all three cancer cells. It counts as cell-based. The following applies: CCK8, 48 h; read-out: IC50 against all three cancer cells. The procedure:
as §1, §2

The test system of a further data set is tubulin. The experiment in a line: Tubulin polymerisation assay in vitro. It counts as biochemical. Conditions: for IC50: 6 mg/ml tubulin, PEM buffer, 37 °C, read-out: IC50 tubulin polymerisation inhibitory activity in vitro. The procedure: (§4) An amount of 6 mg/ml tubulin was resuspended in the PEM buffer (80 mM PIPES (pH 6.9), 1 mM EGTA, 0.5 mM MgCl2, […], 10.2% (v/v) glycerol) and then was preincubated with a sulfonamide-dithiocarbamate hybrid 13d on the ice. The reaction was monitored by a spectrophotometer (Beijng Tianhe Company) at 37 °C to obtain the results of tubulin polymerisation in vitro. RT-112 cells were treated with sulfonamide-dithiocarbamate hybrid 13d for 48 h. Then, slices were fixed by 4% paraformaldehyde for 20 min and washed by PBS for five times. 0.6% Triton-X-100 was added and 0.1% BSA was used to block. β-tubulin antibody was added to incubate overnight at 4 °C. DAPI was used to stain and then images were captured.
Tubulin polymerisation assay investigated that compound 13d inhibited tubulin polymerisation in a concentration dependent manner.

The test system of data set [2] is RT-112 cells. As to the kind of experiment: Immunostaining of microtubules (β-tubulin antibody). It counts as cell-based. The procedure: as §4
Tubulin polymerisation inhibitory effects of the sulfonamide-dithiocarbamate hybrid 13d were further explored by the immunofluorescent staining in RT-112 cells. […] However, after the exposure to 0.25 µM of compound 13d, the microtubule organisation in the cytosol were disrupted.

The test system of data set [3] is E-cadherin, N-cadherin, Vimentin, Snail and Slung in RT-112 cells. The experiment in a line: Western blot of migration-related proteins. Conditions: 48 h, 0.5, 1 and 2 µM. It counts as cell-based. As to the method:
RT-112 cells were treated with compound 13d and then lysed in a RIPA lysis buffer. The protein samples of RT-112 cells were electrophoresed on SDS-PAGE. Nextly, targeted proteins were transferred to PVDF membrane and incubated with antibodies (E-cadherin, N-cadherin, Vimentin, Snail and Slung). The markers were visualised by chemiluminescence detection reagents.
To further characterise the migration effect of sulfonamide-dithiocarbamate hybrid 13d, the expression levels of migration-related proteins (E-cadherin, N-cadherin, Vimentin, Snail and Slung) were investigated against RT-112 cells. Compound 13d was treated for 48 h at concentrations of 0.5, 1 and 2 µM, respectively. […] In addition, hybrid 13d increased the expression of E-cadherin in a concentration manner.

Data set [4] has as its system RT-112 cells. The experiment in a line: Transwell migration assay. The following applies: 48 h. The format is cell-based. The procedure:
Transwell chamber was used to do migration assay according to the reported references[17]^,[18]. Ten thousand RT-112 cells containing compound 13d were seeded in the top chambers for 24 h incubation. The bottom chambers were fixed and stained with crystal violet for 2 h. Finally, the chambers were washed with water, and the top membrane was left to dry.
Based on the antiproliferative activity results, compound 13d was selected to investigate the anticancer mechanisms against the RT-112 cell line. Corning transwell plate was used to do migration assay against RT-112 cells for 48 h. With the treatment of sulfonamide-dithiocarbamate hybrid 13d at 0.5, 1 and 2 µM, the migration rate of RT-112 cells was 76%, 40% and 29%, respectively.

The subject of data set [5] is RT-112 cells. As to the kind of experiment: RT-112 xenograft nude mouse model. The format is in vivo, nude mice. Conditions: 80 mg/kg intragastric, every day for 21 days. The procedure: In vivo experiments were processed according to guidelines established by the ethics committee of the 4th affiliated hospital of CMU. Mice were implanted with RT-112 cells (1.5 × 10^7 cells per mouse) on the right flank of nude mice. The mice were divided into the saline group and sulfonamide-dithiocarbamate hybrid 13d (80 mg/kg) group (n = 5 mice for each group). Intragastric administration of hybrid 13d was performed every day for a period of 21 days.
In order to investigate the tumor growth effects of compound 13d, the xenograft nude mouse of RT-112 cells were established.

The test system of another data set is RT4. As to the kind of experiment: Cell proliferation of bladder cancer cells RT4. The format is cell-based. The following applies: Homo sapiens, RT-4; treatment for 48 h. The procedure: as §1, §3
Another data set has as its system UM-UC-3. As to the kind of experiment: Cell proliferation of bladder cancer cells UM-UC-3. It counts as cell-based. The following applies: Homo sapiens, UMUC3; treatment for 48 h. The procedure: as §1, §3
Another data set has as its system T24. The experiment in a line: Cell proliferation of bladder cancer cells T24. It counts as cell-based. Conditions: Homo sapiens, T-24; treatment for 48 h. As to the method:
as §1, §3

Take `NS(=O)(=O)c1ccc(Nc2nc(-c3ccc(Cl)cc3)nc3ccccc23)cc1` [Compound 2]: the 50% inhibitory concentration (IC50) in the data set with HT-29 cell line is 5.45 µM.
`NS(=O)(=O)c1ccc(/N=C2\NC(=O)/C(=C3/C(=O)Nc4ccc(Cl)cc43)S2)cc1` [Compound 3]: the concentration for half-maximal inhibition (IC50) in the data set with MCF-7 cells is 3.96 µM.
With `C#CCSc1ccnc2c(S(=O)(=O)N(C)CC#C)cccc12` [Compound 4], the IC50 with T47D cells was 0.27 µM.
Consider `O=c1[nH]cc(F)c(=O)[nH]1` [Compound 5-Fu, 5-fluorouracil, reference compound], for which the 50% inhibitory concentration (IC50) in the data set on RT-112 was 13.6 ± 0.2 µM; in the data set with SNU-423, 10.8 ± 0.7 µM; in the data set with MCF-7, 7.4 ± 0.5 µM.
In turn, `COc1cc(NS(=O)(=O)c2cccc3cccnc23)cc(OC)c1OC` [Compound 11, N-(3,4,5-trimethoxyphenyl)quinoline-8-sulfonamide] gave a melting point of 181 to 183 °C. Also, the IC50 in data set [1] is > 40 µM. For the same compound, in the data set with RT-112, the concentration for half-maximal inhibition (IC50) is > 40 µM. Further, the IC50 in the data set with SNU-423 was > 40 µM. In addition, the IC50 in the data set on MCF-7 is > 40 µM.
The compound `COc1cc(N(CCCBr)S(=O)(=O)c2cccc3cccnc23)cc(OC)c1OC` [Compound 12, N-(3-bromopropyl)-N-(3,4,5-trimethoxyphenyl)quinoline-8-sulfonamide] displayed a melting point of 129 to 131 °C. Further, in [1], the IC50 was > 40 µM. For the same compound, the half-inhibitory concentration (IC50) with RT-112 is > 40 µM. Moreover, in the data set on SNU-423, the IC50 was > 40 µM. For the same compound, the IC50 in the data set on MCF-7 was > 40 µM.
As for `COc1cc(N(CCCSC(=S)N2CCN(C)CC2)S(=O)(=O)c2cccc3cccnc23)cc(OC)c1OC` [Compound 13a, 3-(N-(3,4,5-trimethoxyphenyl)quinoline-8-sulfonamido)propyl-4-methylpiperazine-1-carbodithioate], the melting point was 96 to 98 °C. The same compound gave an IC50 with RT-112 of 7.8 ± 0.4 µM. Also, in the data set on SNU-423, the IC50 stood at 8.7 ± 0.9 µM. In addition, the IC50 in the data set on MCF-7 was 6.4 ± 1.2 µM.
Take `CCN1CCN(C(=S)SCCCN(c2cc(OC)c(OC)c(OC)c2)S(=O)(=O)c2cccc3cccnc23)CC1` [Compound 13b, 3-(N-(3,4,5-trimethoxyphenyl)quinoline-8-sulfonamido)propyl-4-ethylpiperazine-1-carbodithioate]: the melting point fell in the range of 131 to 133 °C. In addition, the IC50 with RT-112 stood at 6.8 ± 0.7 µM. For the same compound, the IC50 in the data set on SNU-423 was 5.4 ± 0.3 µM. Also, 8.5 ± 0.7 µM corresponded to half-maximal inhibition with MCF-7 (IC50).
Consider `COc1cc(N(CCCSC(=S)N2CCN(CCO)CC2)S(=O)(=O)c2cccc3cccnc23)cc(OC)c1OC` [Compound 13c, 3-(N-(3,4,5-trimethoxyphenyl)quinoline-8-sulfonamido)propyl-4–(2-hydroxyethyl)piperazine-1-carbodithioate], for which the melting point lay in the range of 106 to 108 °C. It took 4.1 ± 0.6 µM to reach half-maximal inhibition with RT-112 (IC50). In addition, the IC50 in the data set with tubulin came to 3.4 µM. Besides, the tubulin polymerisation inhibition result with tubulin (at 2 µM) was “weak inhibition”. For the same compound, the tubulin polymerisation inhibition result in the data set on tubulin (at 6 µM) is reported as “significantly inhibited”. The same compound showed an IC50 in the data set with SNU-423 of 3.6 ± 0.7 µM. For the same compound, half-maximal inhibition in the data set on MCF-7 (IC50) was put at 4.2 ± 0.1 µM.
`COc1cc(N(CCCSC(=S)N2CCN(C(C)=O)CC2)S(=O)(=O)c2cccc3cccnc23)cc(OC)c1OC` [Compound 13d, 3-(N-(3,4,5-trimethoxyphenyl)quinoline-8-sulfonamido)propyl-4-acetylpiperazine-1-carbodithioate] displayed a melting point of 128 to 129 °C. Also, in the data set on RT-112, the IC50 came out at 0.7 ± 0.1 µM. Moreover, in the data set with RT-112 cells [2] (0.25 µM), the “microtubule organisation in the cytosol” value is reported as “disrupted”. Moreover, the “changes of the mitotic spindles” value with RT-112 cells [2] (0.5 µM) is “more clearly observed”. Also, in data set [3], the “expression of E-cadherin” value was “increased”, the “expression of N-cadherin” value was “decreased”, the “expression of Slung” value is on record as “decreased” and the “expression of Snail” value is on record as “decreased”. The “expression of Vimentin” value in data set [3] is recorded as “decreased”. Besides, in the data set on RT-112 cells [4] (13d at 0.5 µM), the “migration rate of RT-112 cells” value was determined as 76%. Moreover, the “migration rate of RT-112 cells” value in the data set with RT-112 cells [4] (13d at 1 µM) amounted to 40%. Further, in the data set on RT-112 cells [4] (13d at 2 µM), the “migration rate of RT-112 cells” value turned out to be 29%. In the data set on RT-112 cells [5], the average tumor weight stood at 0.51 ± 0.21 g, the “body weights versus control group” value is on record as “no significant difference”, the “inhibitory rate (tumor weight)” value is 66.67% and the “tumor volume versus control group” value is “obviously less than that of the control group”. Further, the IC50 with tubulin worked out at 2.9 µM. Also, in the data set on tubulin (at 2 µM), the tubulin polymerisation inhibition result is “weak inhibition”. Moreover, the tubulin polymerisation inhibition result in the data set with tubulin (at 6 µM) was “significantly inhibited”. The IC50 in the data set on SNU-423 worked out at 3 ± 0.1 µM. In the data set on MCF-7, this compound showed an IC50 of 2.8 ± 0.2 µM. The compound also registered an IC50 in the data set on RT4 of 1.9 µM. For the same compound, it took 0.9 µM to reach half-maximal inhibition in the data set on UM-UC-3 (IC50). In the data set on T24, this compound displayed an IC50 of 2.6 µM.
